Where no end group is shown, it is not given here.

The text below walks through data of PMC10724690, “Deciphering specificity and cross-reactivity in tachykinin NK1 and NK2 receptors” (The Journal of Biological Chemistry, 2023).

The target in assay [1] is T1, NK2R (Homo sapiens, UniProt P21452).
T1 construct: host or cells: COS7
T1 sequence (P21452 1-398): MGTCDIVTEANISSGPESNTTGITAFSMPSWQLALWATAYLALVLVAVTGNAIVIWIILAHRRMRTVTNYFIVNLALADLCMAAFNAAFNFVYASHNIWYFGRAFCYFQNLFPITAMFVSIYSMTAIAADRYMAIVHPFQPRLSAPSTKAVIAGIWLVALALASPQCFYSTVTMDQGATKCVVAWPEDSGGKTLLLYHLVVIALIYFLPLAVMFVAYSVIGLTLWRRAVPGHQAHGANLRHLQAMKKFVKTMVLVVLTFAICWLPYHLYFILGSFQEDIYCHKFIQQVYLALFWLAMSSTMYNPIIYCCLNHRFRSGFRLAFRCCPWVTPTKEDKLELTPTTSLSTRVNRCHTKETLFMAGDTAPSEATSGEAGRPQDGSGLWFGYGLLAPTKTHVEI
In words: IP3 (IP accumulation) assay, wildtype NK2R. The format is cell-based. The following applies: for Emax: Fig 3a, alanine scan of NKA, dose response, IP accumulation ([3H]inositol, SPA) in transfected COS7 cells, 10 mM LiCl, 150 min 37 °C, four-parameter fit. As to the method:
(§1) COS7 cells (derived from African green monkey kidney fibroblast and originally bought from ThermoFisher) were maintained in Dulbecco´s Modified Eagle´s Medium 1885 with GlutaMAX supplemented with 10% fetal bovine serum (Sigma-Aldrich), 100 units/ml penicillin and 100 μg/ml streptomycin at 37 °C with 10% CO2. COS7 cells were plated in either clear-, white-, or white with clear bottom 96-well plates that were coated with poly-D-lysine (Sigma-Aldrich) 30 min prior to cell seeding (20.000 cells/well). The following day plates were transiently transfected using calcium precipitation with 200 ng/well DNA in a culture medium with the addition of 100 μM (final concentration) Chloroquine. Transfection was stopped 5 h later with the addition of a fresh maintenance medium. Fig. […] COS7 cells seeded in clear 96-well plates were incubated with 0.5 μCi/ml myo [3H]inositol (PerkinElmer) in 100 μl growth medium over night following the transfection. The subsequent day cells were washed twice with 200 μl/well HBSS (GIBCO, Life Technologies) and pre-incubated for 5 min at 37 °C with 100 μl/well HBSS buffer supplemented with 10 mM LiCl. Ligand addition was followed by 150 min incubation at 37 °C. To stop ligand incubation, cells were lysed with 40 μl 10 mM formic acid followed by 30 min incubation on ice. 35 μl of the lysate was transferred to white 96-well plates together with 60 μl of 1:8 diluted YSi SPA scintillation beads (PerkinElmer). Plates were sealed and vigorously shaken for 15 min followed by 5 min centrifugation at 1500 rpm. Measurements (scintillation) were recorded on a Microbeta (PerkinElmer) after a 4 h delay and determinations were made in duplicates. All dose-response curves have been calculated using Prism 10 software (GraphPad Software) non-linear regression with four parameters. All data are shown as mean ± SEM unless stated otherwise and consist of two technical replicates from three biological replicates.

For assay [2], the target named is T1, NK2R. The following applies: ref [19], cited from earlier work. An excerpt:
In sharp contrast, NKA-D4 and NKA6-10 are found to be critical for activity.

For assay [3], the target named is T2, NK1R-R177Q (Homo sapiens, UniProt P25103, R177Q).
T2 construct: host or cells: COS7
Kind of assay: IP3 activation assay, NK1R-R177Q. Type of assay: cell-based. The following applies: COS-7. As to the method: as §1, with “Ligand addition was followed by 150 min incubation at 37 °C. To stop ligand incubation, cells were lysed with 40 μl 10 mM formic acid followed by 30 min incubation on ice. 35 μl of the lysate was transferred to white 96-well plates together with 60 μl of 1:8 diluted YSi SPA scintillation beads (PerkinElmer). Plates were sealed and vigorously shaken for 15 min followed by 5 min centrifugation at 1500 rpm.” left out, “All data are shown as mean ± SEM unless stated otherwise and consist of two technical replicates from three biological replicates.” left out

For a further assay, the target named is T3, NK1R-R177K (Homo sapiens, UniProt P25103, R177K).
T3 construct: host or cells: COS7
In words: BRET-based cAMP assay, NK1R-R177K. Type of assay: cell-based. As to conditions: COS-7. As to the method:
(§2) COS7 cells (derived from African green monkey kidney fibroblast and originally bought from ThermoFisher) were maintained in Dulbecco´s Modified Eagle´s Medium 1885 with GlutaMAX supplemented with 10% fetal bovine serum (Sigma-Aldrich), 100 units/ml penicillin and 100 μg/ml streptomycin at 37 °C with 10% CO2. COS7 cells were plated in either clear-, white-, or white with clear bottom 96-well plates that were coated with poly-D-lysine (Sigma-Aldrich) 30 min prior to cell seeding (20.000 cells/well). The following day plates were transiently transfected using calcium precipitation with 200 ng/well DNA in a culture medium with the addition of 100 μM (final concentration) Chloroquine. Transfection was stopped 5 h later with the addition of a fresh maintenance medium. Fig. […] The intracellular level of cAMP was monitored in real-time using bioluminescence resonance energy transfer (BRET). This was achieved by implementing a construct consisting of a cAMP binding protein (Exchange protein activated by cAMP (Epac)) which has been flanked by a BRET pair consisting of Renilla luciferase (Rluc) and yellow fluorescent protein (YFP). […] The BRET signal was calculated as the ratio of emission intensity at 535 nm (citrine) to the emission intensity at 475 nm (luciferase). […] All dose-response curves have been calculated using Prism 10 software (GraphPad Software) non-linear regression with four parameters. […]

Assay [4] has as its target T4, NK1R (Homo sapiens, UniProt P25103).
T4 construct: host or cells: COS7
In words: BRET-based cAMP assay, wildtype NK1R. Type of assay: cell-based. As to conditions: COS-7, Fig 7d, NK1R WT, ligand NKA (by identity with Fig 5b values). As to the method: as §2

For assay [5], the target named is T2, NK1R-R177Q. Kind of assay: BRET-based cAMP assay, NK1R-R177Q. The following applies: COS-7. The format is cell-based. As to the method:
as §2

The target of assay [6] is T4, NK1R. Kind of assay: IP3 (IP accumulation) assay, wildtype NK1R. Type of assay: cell-based. As to the method: as §1, with “Ligand addition was followed by 150 min incubation at 37 °C. To stop ligand incubation, cells were lysed with 40 μl 10 mM formic acid followed by 30 min incubation on ice. 35 μl of the lysate was transferred to white 96-well plates together with 60 μl of 1:8 diluted YSi SPA scintillation beads (PerkinElmer). Plates were sealed and vigorously shaken for 15 min followed by 5 min centrifugation at 1500 rpm.” left out, “All data are shown as mean ± SEM unless stated otherwise and consist of two technical replicates from three biological replicates.” left out

T4 sequence (P25103 whole entry): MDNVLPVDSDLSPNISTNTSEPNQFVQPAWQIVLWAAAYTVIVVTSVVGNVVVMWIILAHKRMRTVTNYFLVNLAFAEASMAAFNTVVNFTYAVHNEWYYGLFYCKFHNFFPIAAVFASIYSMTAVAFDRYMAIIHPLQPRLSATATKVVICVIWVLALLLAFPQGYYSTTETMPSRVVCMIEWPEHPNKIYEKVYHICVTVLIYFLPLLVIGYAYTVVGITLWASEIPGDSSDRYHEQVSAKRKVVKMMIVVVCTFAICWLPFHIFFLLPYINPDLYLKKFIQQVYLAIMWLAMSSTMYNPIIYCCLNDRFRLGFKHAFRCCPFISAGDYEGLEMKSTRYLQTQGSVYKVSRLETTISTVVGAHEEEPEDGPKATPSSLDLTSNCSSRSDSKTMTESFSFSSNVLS
T2 sequence (P25103 whole entry R177Q): as the sequence (P25103 whole entry) above, with R177Q counted along it
T3 sequence (P25103 whole entry R177K): as the sequence (P25103 whole entry) above, with R177K counted along it

In the case of HKTDAFVGLM-NH2 [Ala5], the EC50 on NK2R [1] was 25.9 nM. For KDSFVGL(γ-lactam)M-NH2 [GR64349], the selectivity result at NK2R [2] (NK2R agonist selectivity) is “most selective NK2R agonist reported so far”. At NK2R [2], the agonist character entry was “full agonist”. For `CSCC[C@H](NC(=O)[C@H](CC(C)C)NC(=O)CNC(=O)[C@@H](NC(=O)[C@H](Cc1ccccc1)NC(=O)[C@H](CO)NC(=O)[C@H](CC(=O)O)NC(=O)[C@@H](NC(=O)[C@H](CCCCN)NC(=O)[C@H](C)N)[C@@H](C)O)C(C)C)C(N)=O` [Ala1], at NK2R [1], the midpoint of the response, the EC50, lay at 0.715 nM. Regarding “Ala7: NKA variant of the alanine scan, alanine in position 7 (HKTDSFAGLM; ends and bridges not checked; UniProt P20366 98-107, looked up, variant V7A)”, the Emax with NK2R [1] is listed as 178.

For the molecule “Ala4: NKA variant of the alanine scan, alanine in position 4 (Asp) (HKTASFVGLM; ends and bridges not checked; UniProt P20366 98-107, looked up, variant D4A)”, in the assay with NK2R [1], the Emax turned out to be 1066.

In turn, HKADSFVGLM-NH2 [Ala3] showed a half-maximal effective concentration (EC50) on NK2R [1] of 0.598 nM.

As for HKTDSFVGLA-NH2 [Ala10], at NK2R [1], the EC50 was 31.9 nM.

Turning to `CSCC[C@H](NC(=O)[C@H](CC(C)C)NC(=O)CNC(=O)[C@@H](NC(=O)[C@H](Cc1ccccc1)NC(=O)[C@H](CO)NC(=O)[C@H](CC(=O)O)NC(=O)[C@@H](NC(=O)[C@H](CCCCN)NC(=O)[C@@H](N)Cc1c[nH]cn1)[C@@H](C)O)C(C)C)C(N)=O` [NKA, neurokinin A], the Emax worked out at 59.3% on NK1R-R177Q [3]; 10.7% on NK1R-R177K; 109% on NK1R [4]; 13.1% at NK1R-R177Q [5]; 100% on NK1R [6] (COS-7, Fig 7c, IP3 activation assay, NK1R WT, ligand NKA (by identity with Fig 5a values)); 100% on NK1R [6] (COS-7, Fig 5a, IP3 assay, NK1R WT in COS7 cells).

Consider HATDSFVGLM-NH2 [Ala2], for which a half-maximal response on NK2R [1] (EC50) required 0.68 nM. Take “Ala9: NKA variant of the alanine scan, alanine in position 9 (HKTDSFVGAM; ends and bridges not checked; UniProt P20366 98-107, looked up, variant L9A)”: the Emax with NK2R [1] is 136.
